{
  "source": "paper PMC3436903",
  "about": "(Chembiochem : a European journal of chemical biology, 2011)",
  "assay": "pH-dependence of keto acid-lactol equilibrium by 1H-NMR in D2O",
  "type": "physicochemical",
  "data": [
    {"smiles": "Nc1ncnc2c1ncn2[C@@H]1O[C@H](CNS(=O)(=O)NC(=O)CCC(=O)c2ccccc2C(=O)O)[C@@H](O)[C@H]1O", "note": "[Inhibitor 5]", "values": [
      {"measurement": "pD range of rapid equilibration of keto acid and lactol forms", "setting": "intermediate chemical shifts", "result": "1.32–4.32 pD"},
      {"measurement": "pD at which the lactol form is observed", "setting": "ketone α-protons at ≈2.45 ppm", "result": 0.89, "unit": "pD"},
      {"measurement": "pD at which the keto acid form is observed", "setting": "ketone α-protons at ≈3.2 ppm", "result": "≥ 5.70", "unit": "pD"}
    ]}
  ]
}
